Patent US7713994B2 (Wyeth LLC, priority 2005, dated 2010)

How the values were obtained:
[1] = biological target: T1, cyclin D1/cdk 4 enzyme (Homo sapiens, UniProt P11802); test: CDK4 ELISA kinase assay (phospho-Rb ser 795 detection); type: biochemical; conditions: In Vitro Enzyme Assay, cyclin D1/cdk 4, read-out: CDK4 IC50
T1 construct: made in house; host or cells: Sf9 insect cells, recombinant baculovirus
Procedure, shortened: (§1)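 Wells were coated overnight with GST-Rb C-terminal fragment, then blocked. Compound (10 ug/ml final) and cyclin/CDK enzyme from baculovirus-infected Sf9 cells with 200 μM ATP reacted 1 h at 30° C. Ser795 phosphorylation was detected by ELISA at 450 nm.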

[2] = biological target: T2, cyclin E/CDK2 enzyme (Homo sapiens, UniProt P24941); test: CDK2 ELISA kinase assay (phospho-Rb ser 795 detection); type: biochemical; conditions: In Vitro Enzyme Assay, cyclin E/CDK2, read-out: CDK2 IC50
T2 construct: made in house; host or cells: Sf9 insect cells, recombinant baculovirus
Procedure, shortened: as §1

[3] = biological target: T3, cyclin B/CDK1 enzyme (Homo sapiens, UniProt P06493); test: CDK1 ELISA kinase assay (phospho-Rb ser 795 detection); type: biochemical; conditions: In Vitro Enzyme Assay, cyclin B/CDK1, read-out: CDK1 IC50
T3 construct: purchased New England BioLabs; host or cells: Sf9 insect cells, recombinant baculovirus
Procedure, shortened: as §1

[4] = tested on: BT474; test: Cytotoxicity assay (SRB), BT474; type: cell-based; conditions: Homo sapiens, BT-474, 144 h, BT474 cells, 6 days, SRB; read-out: In Vitro Cellular Activity IC50 BT474
Procedure, shortened: (§2)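 Plate cells, let them attach overnight, add compound dilutions in RPMI 1640/5% FBS, and incubate 3 days (BT474 6 days). Then fix with TCA, stain with SRB, dissolve the dye in Tris and read at 540 nm.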

[5] = tested on: HCT-116; test: Cytotoxicity assay (SRB), HCT-116; type: cell-based; conditions: Homo sapiens, HCT-116, 72 h, HCT116 cells, 3 days, SRB; read-out: In Vitro Cellular Activity IC50 HCT116
Procedure, shortened: as §2

[6] = tested on: LoVo; test: Cytotoxicity assay (SRB), LoVo; type: cell-based; conditions: Homo sapiens, LoVo, 72 h, LoVo cells, 3 days, SRB; read-out: In Vitro Cellular Activity IC50 LOVO
Procedure, shortened: as §2

[7] = tested on: MCF-7; test: Cytotoxicity assay (SRB), MCF-7; type: cell-based; conditions: Homo sapiens, MCF7, 72 h, MCF-7 cells, 3 days, SRB; read-out: In Vitro Cellular Activity IC50 MCF-7
Procedure, shortened: as §2

T1 sequence (P11802 whole entry, species assumed): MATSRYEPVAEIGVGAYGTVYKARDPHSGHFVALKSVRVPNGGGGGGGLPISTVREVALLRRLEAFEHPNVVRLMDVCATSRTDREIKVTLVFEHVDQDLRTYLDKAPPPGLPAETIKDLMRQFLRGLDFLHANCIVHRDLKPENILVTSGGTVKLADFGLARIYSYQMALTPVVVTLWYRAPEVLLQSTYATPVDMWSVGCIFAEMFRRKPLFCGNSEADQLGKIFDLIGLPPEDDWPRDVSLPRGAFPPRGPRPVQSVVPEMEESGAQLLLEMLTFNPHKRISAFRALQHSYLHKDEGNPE
T1 sequence (P24385 whole entry partner, species assumed): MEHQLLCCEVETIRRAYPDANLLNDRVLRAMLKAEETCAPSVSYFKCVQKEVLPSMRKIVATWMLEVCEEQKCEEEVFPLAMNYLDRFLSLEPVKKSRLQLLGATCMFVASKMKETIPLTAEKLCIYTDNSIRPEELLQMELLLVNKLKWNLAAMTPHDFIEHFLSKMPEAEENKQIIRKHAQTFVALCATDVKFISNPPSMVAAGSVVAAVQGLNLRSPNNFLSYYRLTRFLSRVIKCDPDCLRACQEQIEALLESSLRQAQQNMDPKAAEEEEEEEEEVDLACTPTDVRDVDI
T3 sequence (P06493 whole entry): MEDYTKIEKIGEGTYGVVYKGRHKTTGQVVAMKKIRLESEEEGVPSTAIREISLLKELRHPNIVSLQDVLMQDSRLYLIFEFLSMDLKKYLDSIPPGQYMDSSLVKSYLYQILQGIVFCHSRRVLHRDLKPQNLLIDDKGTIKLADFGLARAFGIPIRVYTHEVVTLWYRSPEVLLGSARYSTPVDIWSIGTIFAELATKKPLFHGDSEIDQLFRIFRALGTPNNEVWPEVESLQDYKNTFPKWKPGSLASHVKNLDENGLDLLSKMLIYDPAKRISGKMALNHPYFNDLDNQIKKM
T3 sequence (P14635 whole entry partner): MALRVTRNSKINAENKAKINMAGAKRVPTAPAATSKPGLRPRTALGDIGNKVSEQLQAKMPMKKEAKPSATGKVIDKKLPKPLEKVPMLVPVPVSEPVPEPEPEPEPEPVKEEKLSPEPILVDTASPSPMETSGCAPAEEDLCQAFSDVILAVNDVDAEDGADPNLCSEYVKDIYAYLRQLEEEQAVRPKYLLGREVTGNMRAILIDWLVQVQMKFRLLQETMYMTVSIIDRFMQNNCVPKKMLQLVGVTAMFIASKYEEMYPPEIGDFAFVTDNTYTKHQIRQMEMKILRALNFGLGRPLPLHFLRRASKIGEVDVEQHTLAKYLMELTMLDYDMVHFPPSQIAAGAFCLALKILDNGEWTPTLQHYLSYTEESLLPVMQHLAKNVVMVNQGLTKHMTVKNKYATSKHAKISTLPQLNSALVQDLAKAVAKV

Compound | IC50 [1] | IC50 [2] | IC50 [3] | melting point | IC50 [4] | IC50 [5] | IC50 [6] | IC50 [7]
CN1CCN(c2ccc(N/C=C3\C(=O)NC(=O)c4ccc(-c5cccn5C)cc43)cn2)CC1 [Example 474, (4Z)-4-({[6-(4-Methylpiperazin-1-yl)pyridin-3-yl]amino}methylene)-6-(1-methyl-1H-pyrrol-2-yl)isoquinoline-1,3(2H,4H)-dione] | 4.2 µM | > 50 µM | > 50 µM | 216 to 217 °C | 7.4 µM | 3.5 µM | 3.8 µM | 4 µM
CN1CCN(c2ccc(N/C=C3\C(=O)NC(=O)c4ccc(-c5ccoc5)cc43)nn2)CC1 [Example 476, (4Z)-6-(3-Furyl)-4-({[6-(4-methylpiperazin-1-yl)pyridazin-3-yl]amino}methylene)isoquinoline-1,3(2H,4H)-dione] | 0.82 µM | > 50 µM | 24.7 µM | 275 to 276 °C | 2.6 µM | 1.9 µM | 3.1 µM | 4.5 µM
CN1CCN(c2ccc(N/C=C3\C(=O)NC(=O)c4ccc(Br)cc43)nn2)CC1 [Example 477, (4Z)-6-Bromo-4-({[6-(4-methylpiperazin-1-yl)pyridazin-3-yl]amino}methylene)isoquinoline-1,3(2H,4H)-dione] | 13.8 µM | 40.6 µM | 24.2 µM | 245 to 246 °C | 4.1 µM | 1.6 µM | 3.9 µM | 2.3 µM
COC[C@@H]1CCCN1Cc1ccc(N/C=C2\C(=O)NC(=O)c3ccc(I)cc32)nc1 [Example 478, (4Z)-6-Iodo-4-{[(5-{[(2S)-2-(methoxymethyl)pyrrolidin-1-yl]methyl}pyridin-2-yl)amino]methylene}isoquinoline-1,3(2H,4H)-dione] | 17.6 µM | > 50 µM | > 50 µM | 185 to 186 °C | > 50 µM | 24.2 µM | 46.8 µM | 44.8 µM
O=C1NC(=O)c2ccc(I)cc2/C1=C/Nc1ccc(CN2CCC(CCO)CC2)cc1 [Example 480, (4Z)-4-{[(4-{[4-(2-Hydroxyethyl)piperidin-1-yl]methyl}phenyl)amino]methylene}-6-iodoisoquinoline-1,3(2H,4H)-dione] | 0.21 µM | 26.5 µM | > 50 µM | 223 to 224 °C | 1 µM | 3.3 µM | 4.5 µM | 1.6 µM
CC(C)N1CCN(c2ccc(N/C=C3\C(=O)NC(=O)c4ccc(-c5ccoc5)cc43)nc2)CC1 [Example 488, (4Z)-6-(3-Furyl)-4-({[5-(4-isopropylpiperazin-1-yl)pyridin-2-yl]amino}methylene)isoquinoline-1,3(2H,4H)-dione] | 0.43 µM | > 50 µM | > 50 µM | 278 to 279 °C | 0.96 µM | 3.16 µM | 2.41 µM | 2.27 µM
O=C1NC(=O)c2ccc(Br)cc2/C1=C/Nc1ccc(CN2CCC(CCO)CC2)cc1 [Example 489, (4Z)-6-Bromo-4-{[(4-{[4-(2-hydroxyethyl)piperidin-1-yl]methyl}phenyl)amino]methylene}isoquinoline-1,3(2H,4H)-dione] | 1.3 µM | > 50 µM | > 50 µM | 200 to 201 °C | 6.25 µM | 4.04 µM | 4.59 µM | 3.43 µM
CN1CCN(c2cnc(N/C=C3\C(=O)NC(=O)c4ccc(I)cc43)cn2)CC1 [Example 507, (4Z)-6-Iodo-4-({[5-(4-methylpiperazin-1-yl)pyrazin-2-yl]amino}methylene)isoquinoline-1,3(2H,4H)-dione] | 13.7 µM | 16 µM | 3 µM | 238 to 239 °C | 9.5 µM | 3.1 µM | 18 µM | 11 µM
CN1CCN(c2cnc(N/C=C3\C(=O)NC(=O)c4ccc(-c5ccoc5)cc43)cn2)CC1 [Example 508, (4Z)-6-(3-Furyl)-4-({[5-(4-methylpiperazin-1-yl)pyrazin-2-yl]amino}methylene)isoquinoline-1,3(2H,4H)-dione] | 1.3 µM | > 50 µM | 2.2 µM | 226 to 227 °C | 3 µM | 0.95 µM | 1.1 µM | 1.3 µM

These reach a lower IC50 [1]. Values come first.

IC50 [1] | IC50 [2] | IC50 [3] | melting point | Compound | IC50 [4] | IC50 [5] | IC50 [6] | IC50 [7]
0.19 µM | > 50 µM | > 50 µM | 256 to 257 °C | CCN1CCN(c2ccc(N/C=C3\C(=O)NC(=O)c4ccc(-c5ccoc5)cc43)nc2)CC1 [Example 481, (4Z)-4-({[5-(4-Ethylpiperazin-1-yl)pyridin-2-yl]amino}methylene)-6-(3-furyl)isoquinoline-1,3(2H,4H)-dione] | 0.6 µM | 0.88 µM | 0.96 µM | 1.1 µM
0.12 µM | > 50 µM | > 50 µM | 202 to 203 °C | O=C1NC(=O)c2ccc(-c3ccc(F)cc3)cc2/C1=C/Nc1ccc(CN2CCC(CCO)CC2)cc1 [Example 482, (4Z)-6-(4-Fluorophenyl)-4-{[(4-{[4-(2-hydroxyethyl)piperidin-1-yl]methyl}phenyl)amino]methylene}isoquinoline-1,3(2H,4H)-dione] | 1.3 µM | 2.5 µM | 2.7 µM | 0.84 µM
< 0.005 µM | 2.8 µM | 20.2 µM | 288 to 290 °C (dec.) | CCCOc1cnc(CN/C=C2\C(=O)NC(=O)c3ccc(-c4ccco4)cc32)cc1O [Example 502, 6-Furan-2-yl-4-{[(4-hydroxy-5-propoxy-pyridin-2-ylmethyl)-amino]-methylene}-4H-isoquinoline-1,3-dione] | 0.69 µM | 1.4 µM | 0.96 µM | 1.2 µM
0.2 µM | > 50 µM | > 50 µM | 95 to 96 °C | CN(C)C1CCN(Cc2ccc(N/C=C3\C(=O)NC(=O)c4ccc(-c5ccc(F)cc5)cc43)cc2)C1 (centres unmarked) [Example 512, (4Z)-4-{[(4-{[3-(Dimethylamino)pyrrolidin-1-yl]methyl}phenyl)amino]methylene}-6-(4-fluorophenyl)isoquinoline-1,3(2H,4H)-dione] | 2.36 µM | 1.19 µM | 3.05 µM | 2.7 µM
0.06 µM | 15.8 µM | > 50 µM | 230 to 231 °C | O=C1NC(=O)c2ccc(I)cc2/C1=C/NCc1ccc(-n2cccc2)c(O)c1 [Example 514, (4Z)-4-({[3-Hydroxy-4-(1H-pyrrol-1-yl)benzyl]amino}methylene)-6-iodoisoquinoline-1,3(2H,4H)-dione] | 0.59 µM | 1.04 µM | 0.74 µM | 2.25 µM
0.02 µM | 0.56 µM | 2.6 µM | 180 to 181 °C | CN1CCN(c2ccc(CN/C=C3\C(=O)NC(=O)c4ccc(I)cc43)cc2O)CC1 [Example 521, (4Z)-4-({[3-Hydroxy-4-(4-methylpiperazin-1-yl)benzyl]amino}methylene)-6-iodoisoquinoline-1,3(2H,4H)-dione] | 7.55 µM | 2.57 µM | 5.44 µM | 2.6 µM
0.2 µM | 31.1 µM | > 50 µM | 120 to 121 °C | COC[C@@H]1CCCN1c1ccc(CN/C=C2\C(=O)NC(=O)c3ccc(I)cc32)cc1O [Example 523, (4Z)-4-[({3-Hydroxy-4-[(2S)-2-(methoxymethyl)pyrrolidin-1-yl]benzyl}amino)methylene]-6-iodoisoquinoline-1,3(2H,4H)-dione] | 5.7 µM | 6.4 µM | 6.2 µM | 7.3 µM
